For series [1], the target named is T1, Growth hormone secretagogue receptor type 1 (Homo sapiens, UniProt Q92847). In words: Antagonist activity at human GHSR1a receptor assessed as intracellular Ca2+ concentration by aequorin luminescent assay. It counts as functional, cell-based.
Series [2] in a line: Metabolic stability in human liver S9 fraction assessed as compound remaining after 1 hr. Type of series: ADME, subcellular. The conditions noted are these: read-out: Stability.
Series [3] is described as follows: Metabolic stability in rat liver S9 fraction assessed as compound remaining after 1 hr. It counts as ADME, subcellular. The conditions noted are these: read-out: Stability.
Series [4] in a line: Clearance in Sprague-Dawley rat at 2 mg/kg, po. The conditions noted are these: in vivo. It counts as ADME, organism-based. On the set-up: dose 2 mg/kg, route oral.
Series [5] in a line: Oral bioavailability in Sprague-Dawley rat at 2 mg/kg. Type of series: ADME, organism-based. Conditions: in vivo.
Series [6] can be described thus: AUC in Sprague-Dawley rat at 2 mg/kg, po. Type of series: ADME, organism-based. On the set-up: dose 2 mg/kg, route oral. The conditions noted are these: plasma.
For series [7], the target named is Growth hormone secretagogue receptor type 1 (Mus musculus, UniProt Q99P50). The experiment in a line: Antagonist activity at mouse GHSR1 receptor assessed as intracellular Ca2+ concentration by aequorin luminescent assay. Type of series: functional, cell-based.
Chain of Growth hormone secretagogue receptor type 1 (Mus musculus, UniProt Q99P50) (Q99P50 whole entry): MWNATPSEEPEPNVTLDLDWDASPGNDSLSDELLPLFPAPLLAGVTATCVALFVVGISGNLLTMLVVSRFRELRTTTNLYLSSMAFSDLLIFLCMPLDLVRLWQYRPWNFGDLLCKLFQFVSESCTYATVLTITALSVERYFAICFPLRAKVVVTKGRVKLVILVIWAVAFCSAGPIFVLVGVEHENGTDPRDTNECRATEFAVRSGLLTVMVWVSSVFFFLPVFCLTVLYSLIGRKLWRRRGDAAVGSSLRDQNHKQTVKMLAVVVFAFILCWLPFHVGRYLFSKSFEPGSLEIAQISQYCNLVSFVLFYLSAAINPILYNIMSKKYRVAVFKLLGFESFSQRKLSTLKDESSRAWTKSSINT
Series [8] has as its target T1, Growth hormone secretagogue receptor type 1. In words: Displacement of [125I]Ghrelin from human GHSR1a receptor. (In general: Loss of bound radioactivity is the signal in a displacement assay; it reports binding, not function.)

28 compounds from ChEMBL document CHEMBL2010687 (Bioorg Med Chem Lett, 2012) can be followed below.

SMILES strings stand for the structures.

T1 sequence (Q92847 whole entry): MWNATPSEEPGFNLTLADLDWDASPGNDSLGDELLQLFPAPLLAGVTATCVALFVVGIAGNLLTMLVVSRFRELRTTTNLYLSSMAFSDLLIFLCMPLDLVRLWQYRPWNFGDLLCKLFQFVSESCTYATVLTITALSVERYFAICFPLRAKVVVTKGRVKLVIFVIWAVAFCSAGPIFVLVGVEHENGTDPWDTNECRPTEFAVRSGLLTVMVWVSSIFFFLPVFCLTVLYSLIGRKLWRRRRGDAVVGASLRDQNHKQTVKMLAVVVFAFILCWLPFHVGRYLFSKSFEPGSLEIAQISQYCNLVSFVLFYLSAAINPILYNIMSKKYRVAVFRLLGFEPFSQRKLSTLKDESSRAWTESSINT

For the compound `CC(C)[C@@H](C(=O)NC1CCN(Cc2ccccc2)CC1)N1CC(=O)Nc2ccc(Oc3ccccc3)cc2C1=O`, the concentration for half-maximal inhibition (IC50) in series [1] is 196 nM.

On to `COc1ccccc1Oc1ccc2c(c1)C(=O)N([C@@H](C(=O)NC1CCN(Cc3ccccc3)CC1)C(C)C)CC(=O)N2`, for which the half-inhibitory concentration (IC50) in series [1] turned out to be 26 nM. Also, the remaining at 1 h in series [2] was found to be 26%; in series [3] it was 19%.

With `Cc1ccccc1Oc1ccc2c(c1)C(=O)N([C@@H](C(=O)NC1CCN(Cc3ccccc3)CC1)C(C)C)CC(=O)N2`, the IC50 in series [1] came to 3 nM. Besides, the remaining at 1 h was found to be 5% in series [2] and 3% in series [3].

Consider `CC(C)[C@H](C(=O)NC1CCN(Cc2ccccc2)CC1)N1CC(=O)Nc2ccc(Oc3ccc(Cl)cc3)cc2C1=O`, for which the IC50 in series [1] is 28 nM.

On to `CC(C)[C@H](C(=O)N1CCC(NCC2CC2)CC1)N1CC(=O)Nc2ccc(Oc3ccccc3)cc2C1=O`, for which the 50% inhibitory concentration (IC50) in series [1] was found to be 50 nM. The remaining at 1 h in series [2] was 86%; in series [3], 71%.

For the compound `CC(C)[C@H](C[C@H]1CC[C@@H](NCC2CC2)CC1)N1CCCc2ccc(Oc3ccc(F)cc3F)cc2C1=O`, the 50% inhibitory concentration (IC50) in series [1] amounted to 2 nM. Also, the remaining at 1 h was 92% in series [2] and 97% in series [3]. In addition, in series [4], the CL/F is 10 mL/min/kg. The same compound came in with a bioavailability in series [5] of 39%. For the same compound, in series [6], the AUC stood at 618 ng·h/mL.

Take `CC(C)[C@H](C(=O)N1CCC(NCc2ccccc2)CC1)N1CC(=O)Nc2ccc(Oc3ccccc3)cc2C1=O`: the IC50 in series [1] was 8 nM. The remaining at 1 h in series [2] turned out to be 62%; in series [3], 72%.

Turning to `O=C1CN(CC(=O)NC2CCN(Cc3ccccc3)CC2)C(=O)c2cc(Oc3ccccc3)ccc2N1`, the 50% inhibitory concentration (IC50) in series [1] worked out at 314 nM.

For `O=C1CN([C@@H](C(=O)NC2CCN(Cc3ccccc3)CC2)C2CC2)C(=O)c2cc(Oc3ccccc3)ccc2N1`, the concentration for half-maximal inhibition (IC50) in series [1] is 12 nM.

Consider `CC(C)[C@H](C(=O)N1CCC(NCc2ccccc2)CC1)N1CC(=O)Nc2ccc(Oc3ccc(F)cc3F)cc2C1=O`, for which, in series [1], the IC50 turned out to be 0.3 nM. The results for the remaining at 1 h in series [2] and in series [3] were 70% and 65%, respectively.

As for `Cc1cc(F)ccc1Oc1ccc2c(c1)C(=O)N([C@@H](C(=O)NC1CCN(Cc3ccccc3)CC1)C(C)C)CC(=O)N2`, in series [1], the IC50 amounted to 0.2 nM. In addition, the values for the remaining at 1 h in series [2] and in series [3] were 5% and 3%, respectively.

With `CC(C)[C@H](C(=O)N1CCC(N[C@H](C)C2CCCCC2)CC1)N1CC(=O)Nc2ccc(Oc3ccccc3)cc2C1=O`, in series [1], the IC50 was 2.5 nM. Also, the results for the remaining at 1 h in series [2] and in series [3] were 30% and 28%, respectively.

With `CC(C)[C@H](C(=O)NC1CCNCC1)N1CC(=O)Nc2ccc(Oc3ccccc3)cc2C1=O`, the IC50 in series [1] was over 10000 nM.

For the compound `Cc1ccc(Oc2ccc3c(c2)C(=O)N([C@@H](C(=O)NC2CCN(Cc4ccccc4)CC2)C(C)C)CC(=O)N3)cc1`, in series [1], the IC50 was found to be 7 nM.

`COc1cccc(Oc2ccc3c(c2)C(=O)N([C@@H](C(=O)NC2CCN(Cc4ccccc4)CC2)C(C)C)CC(=O)N3)c1`: the IC50 in series [1] stood at 143 nM. For the same compound, the remaining at 1 h came out at 22% in series [2] and 10% in series [3].

For the compound `CC(C)[C@H](C(=O)NC1CCN(Cc2ccccc2)CC1)N1CC(=O)Nc2ccc(Oc3ccccc3)cc2C1=O`, the figures for the half-maximal inhibitory concentration (IC50) in series [1] and in series [7] were 8 nM and 7 nM, respectively. The affinity in series [8] corresponds to a Ki of 4.4 nM. Moreover, the remaining at 1 h came to 30% in series [2] and 19% in series [3]. In series [4], this compound gave a CL/F of 143 mL/min/kg. The bioavailability in series [5] was determined as 6%. Also, in series [6], the AUC came out at 132 ng·h/mL.

As for `CC(C)[C@H](C[C@H]1CC[C@@H](NCc2ccccc2)CC1)N1CC(=O)Nc2ccc(Oc3ccccc3)cc2C1=O`, the IC50 in series [1] turned out to be 6 nM.

On to `CC(C)[C@H](C(=O)N1CCC(N[C@H](C)c2ccccc2)CC1)N1CC(=O)Nc2ccc(Oc3ccccc3)cc2C1=O`, for which, in series [1], the half-maximal inhibitory concentration (IC50) was determined as 2.5 nM. In addition, the remaining at 1 h is 27% in series [2] and 46% in series [3].

As to `CC(C)[C@H](C(=O)N1CCC(NCCC2CCCCC2)CC1)N1CC(=O)Nc2ccc(Oc3ccccc3)cc2C1=O`, the half-maximal inhibitory concentration (IC50) in series [1] is 4.1 nM. In series [2], the remaining at 1 h came to 76%.

Regarding `CC(C)[C@H](C(=O)NC1CCN(Cc2ccccc2)CC1)N1CC(=O)Nc2ccc(Oc3ccc(F)cc3)cc2C1=O`, in series [1], the IC50 amounted to 11 nM.

Regarding `CC(C)[C@H](C(=O)NC1CCC(Cc2ccccc2)CC1)N1CC(=O)Nc2ccc(Oc3ccccc3)cc2C1=O` (stereo not given in full), the IC50 in series [1] was over 10000 nM. The remaining at 1 h in series [2] is 23%; in series [3], 95%.

Consider `CC(C)[C@H](C[C@H]1CC[C@@H](NCC2CC2)CC1)N1CC(=O)Nc2ccc(Oc3ccc(F)cc3F)cc2C1=O`, for which, in series [1], the IC50 was found to be 20 nM. The remaining at 1 h in series [2] is 68%; in series [3], 27%.

Consider `CC(C)[C@H](C(=O)N1CCC(NC(C)(C)c2ccccc2)CC1)N1CC(=O)Nc2ccc(Oc3ccccc3)cc2C1=O`, for which the IC50 in series [1] is 16.5 nM. The remaining at 1 h came to 19% in series [2] and 48% in series [3].

With `COc1ccc(Oc2ccc3c(c2)C(=O)N([C@@H](C(=O)NC2CCN(Cc4ccccc4)CC2)C(C)C)CC(=O)N3)cc1`, in series [1], the IC50 was determined as 79 nM.

Turning to `CC(C)[C@H](C(=O)N1CCC(NCCC2CCOCC2)CC1)N1CC(=O)Nc2ccc(Oc3ccccc3)cc2C1=O`, the half-maximal inhibitory concentration (IC50) in series [1] amounted to 313 nM.

Regarding `Cc1cccc(C)c1Oc1ccc2c(c1)C(=O)N([C@@H](C(=O)NC1CCN(Cc3ccccc3)CC1)C(C)C)CC(=O)N2`, the IC50 in series [1] is 1 nM.

With `CC(C)[C@H](C(=O)NC1CCN(Cc2ccccc2)CC1)N1CC(=O)Nc2ccc(Oc3cccc(Cl)c3)cc2C1=O`, in series [1], the 50% inhibitory concentration (IC50) was 171 nM.

On to `CC(C)[C@H](C(=O)NC1CCN(C(=O)c2ccccc2)CC1)N1CC(=O)Nc2ccc(Oc3ccccc3)cc2C1=O`, for which the half-maximal inhibitory concentration (IC50) in series [1] is over 10000 nM.

Usually IC50 stands for the concentration that inhibits the measured activity by half. What is called CL/F is clearance divided by bioavailability, as obtained after extravascular dosing. For orientation: bioavailability means dose-corrected exposure relative to a reference, in per cent. High values mean good availability, low ones poor availability. The term AUC denotes concentration integrated over time. A higher AUC goes with high exposure. In general, Ki refers to the equilibrium dissociation constant of an inhibitor or competing ligand from its target. Read a high Ki as weaker binding.
